Data set [1] concerns Pst DC3000. The following applies: seedlings treated with 50 mM NaCl for 24 hours, with or without 250 nM AtCAPE1 for 6 hours.
Description: 5 days Arabidopsis seedlings treated with 50 mM NaCl for 24 hours and following the treatment of with or without 250 nM AtCAPE1 for 6 hours. The infection symptoms were observed 4 days after Pst DC3000 inoculation. The bacterial numbers were calculated 7 days after inoculation and represented as log colony-forming units (Log CFU) per g leaf tissue. Data represent the means and SD of three biological samples.
Pst DC3000 or hrcC^− were grown in water- or peptide-treated plants for several days to observe the symptoms and then the bacteria were collected from the leaves and evaluated by bacterial titers according to a method outlined previously (Zimmerli et al., 2000).
Data set [2] deals with JA and JA-Ile accumulation. In words: Jasmonate hormone quantitation by LC-MS/MS in excised tomato plants. The format is in vivo, Solanum lycopersicum (tomato). The following applies: 365 nM peptide in buffer through the cut stem of excised plants, 2 and 4 hours.
Description: The plants treated with 10 mM phosphate buffer (buffer), 365 nM systemin (Sys) or 365 nM CAPE1 in buffer through the cut stem for 2 and 4 hours (n=3). The quantity of JA and JA-Ile were quantified by LC-SRM-MS and calculated by the abundance of spiked standard H2JA. Data represent the means and SD of three independent biological replicates.
To compare the jasmonates induced by the peptides, the excised tomato plants were treated with 10 mM phosphate buffer, 365 nM systemin or 365 nM CAPE1 in buffer through the cut stem for 2 and 4 hours (Schaller et al., 1995; Howe et al., 1996).
After peptide treatment, the metabolites were extracted from leaf tissues for phytohormone quantitation. The extraction procedure was modified from a previously published protocol (Pan et al., 2010). The leaf tissues (about 0.6 g fresh weight) were ground into powder under liquid nitrogen and transferred to a 50 ml screw-cap tube. The frozen leaf powder was dissolved in 6 ml extraction solvent and d6-SA (3 ng to 0.6 g leaf tissue) and H2JA (15 ng to 0.6 g leaf tissue) were added as internal standards. The samples were extracted by shaking at a speed of 100 rpm at 4° C. for 30 minutes and then 12 ml dichloromethane was added to each sample and shaken at 100 rpm at 4° C. for 30 minutes. The samples were centrifuged at 13,000×g at 4° C. for 5 minutes, and two phases were formed. […]
In data set [3] the test system is PR-1b and WRKY53 gene expression. In words: qRT-PCR of defense genes in tomato leaves pretreated with cleavage motif peptide and challenged with Pst DC3000 hrcC-. The class given is in vivo. The following applies: 1 μM CNYDPV pretreatment for 2 h, then Pst DC3000 hrcC- challenge for 2 h. As for the experimental part:
Relative expression levels of PR-1b and WRKY53 were analyzed by qRT-PCR 2 h after challenge of 10^7 cfu/mL Pst DC3000 hrcC^− or buffer in tomato leaves, which was pretreated with water, 100 nM CAPE1 or 1 μM CNYDPV for 2 h, respectively.
Quantitative real-time PCR (qRT-PCR) was used to validate the expression of some specific genes. Three biological replicates were used for qRT-PCR analyses. The qRT-PCR was performed using SYBR Green reagent and ABI 7500 Real Time PCR systems (Foster City, Calif.). The PCR cycling steps were 50° C. for 2 min and 94° C. for 10 min for initial steps and followed by 95° C. for 15 s and 60° C. for 1 min for 40 cycles. The gene expressions across different samples were normalized with internal control EF-1α or Ubi3. The melting curve was used to verify the specificity of the PCR product.
For orientation: In qPCR the cycle at which signal appears reflects the starting amount.

For data set [4], the system named is Pst DC3000. In words: Pathogen challenge of presprayed Arabidopsis plants. The format is in vivo, Pseudomonas syringae pv. tomato. Particulars: plants sprayed with 100 nM peptide for 2 hours prior to inoculation.
Description: The infection symptoms were observed 4 days after inoculation. The bacterial numbers were calculated 4 days after inoculation and are represented as log colony-forming units (Log CFU) per g leaf tissue. Data represent the means and SD of three biological samples.
To test the anti-pathogen activity induced by peptides in Arabidopsis, the plants were sprayed with 100 nM AtCAPE1, AtCAPE9, 100 nM flg22 or water, respectively, for 2 hours prior to pathogen challenge.
The bacterial pathogen Pseudomonas syringae pv. tomato DC3000 (Pst DC3000) or Pst DC3000 hrcC^− were grown on King's B (KB) agar medium containing 100 mg/L rifampicin for 2 days at 28° C. Before the challenge, the bacteria were cultured in KB liquid medium at 28° C. with 230 rpm shaking overnight. The bacteria were pelleted by centrifugation and resuspended in 10 mM MgSO4 at A600=0.25 (about 10^8 cfu/ml).
The test system of data set [5] is Pseudomonas syringae pv. tomato DC3000 (Pst DC3000). The format is in vivo. As for the experimental part: (a) Changes of the larval sizes after feeding with water or 250 nM CAPE1 treated tomato leaves. The larval weights of thirty larvae were recorded each day. (b) The Pst DC3000 infection phenotypes of the plants presprayed with water or 100 nM CAPE1 peptide for 2 hours (n=3) prior to pathogen inoculation. […] All statistically significant differences between the CAPE1- and water-treated samples are indicated with * (P<0.05) or *** (P<0.001) based on Student's t-test.
(§1) (a) The level of SA induced by CAPE1 and flg22. The excised plants were pretreated with 10 mM phosphate buffer (buffer) or 365 nM CAPE1 or 365 nM flg22 in buffer through the cut stem for 8 hours (n=3). The quantity of SA was quantified by LC-SRM-MS and calculated based on the abundance of spiked SA isotopic standard (d6-SA). (b) The relative expression of WRKY53 and PR-1b were quantified by comparing the expression levels in untreated detached leaves with the detached leaves treated with water, 250 nM CAPE1 or 250 nM flg22 for 2 hours (n=4). The internal control Ubi3 was used for normalization. (c) The Pst DC3000 infection phenotypes for plants presprayed with water, 100 nM CAPE1 or 100 nM flg22 peptide for 2 hours (n=3) prior to the pathogen inoculation. The infection symptoms were observed 4 days after inoculation. […]

The next data set concerns SA accumulation. In words: Salicylic acid quantitation by LC-MS/MS in excised tomato plants. The following applies: 365 nM peptide supplied to excised plants through cut stem, 8 hours. The format is in vivo, Solanum lycopersicum (tomato). As for the experimental part: as §1, with “normalization.” for “normalization. (c) The Pst DC3000 infection phenotypes for plants presprayed with water, 100 nM CAPE1 or 100 nM flg22 peptide for 2 hours (n=3) prior to the pathogen inoculation. The infection symptoms were observed 4 days after inoculation.”
After peptide treatment, the metabolites were extracted from leaf tissues for phytohormone quantitation. […] The dried samples were dissolved in 300 μl methanol, mixed well and centrifuged at 10,000×g at 4° C. for 5 minutes and then the supernatant was transferred to the sample vial for targeted quantitation analysis using LC-MS/MS.
For phytohormone quantitation, a linear ion trap-orbitrap mass spectrometer (Orbitrap Elite, Thermo Fisher Scientific, Bremen, Germany) coupled online with a UHPLC system (ACQUITY UPLC, Waters, Millford, Mass.) was used. […] The fragmentation reactions of m/z 137.02 to 93.03 for SA, 209.12 to 59.01 for JA, 322.20 to 130.09 for JA-Ile, 141.05 to 97.06 for d6-SA and 211.13 to 59.01 for H2JA were selected for quantitation. […]

Data set [6] has as its system WRKY53 and PR-1b gene expression. In words: qRT-PCR of WRKY53 and PR-1b in detached tomato leaves. The following applies: 250 nM peptide, 2 hours. The class given is in vivo, Solanum lycopersicum (tomato). As for the experimental part:
(a) The level of SA induced by CAPE1 and flg22. The excised plants were pretreated with 10 mM phosphate buffer (buffer) or 365 nM CAPE1 or 365 nM flg22 in buffer through the cut stem for 8 hours (n=3). The quantity of SA was quantified by LC-SRM-MS and calculated based on the abundance of spiked SA isotopic standard (d6-SA). (b) The relative expression of WRKY53 and PR-1b were quantified by comparing the expression levels in untreated detached leaves with the detached leaves treated with water, 250 nM CAPE1 or 250 nM flg22 for 2 hours (n=4). The internal control Ubi3 was used for normalization. (c) The Pst DC3000 infection phenotypes for plants presprayed with water, 100 nM CAPE1 or 100 nM flg22 peptide for 2 hours (n=3) prior to the pathogen inoculation. The infection symptoms were observed 4 days after inoculation. […] A statistically significant difference compared with the correspondingly treated water (or buffer) samples is indicated with ** (P<0.01) or *** (P<0.001) based on Student's t-test.
Quantitative real-time PCR (qRT-PCR) was used to validate the expression of some specific genes. Three biological replicates were used for qRT-PCR analyses. The qRT-PCR was performed using SYBR Green reagent and ABI 7500 Real Time PCR systems (Foster City, Calif.). […]

In data set [7] the test system is WRKY53, PR-1b, Adi3 and ERF5 gene expression. Particulars: 30 minute or 6 hours treatment of flg22 on tomato; cited from earlier work.

Ends that are not written are not given here.

On to `[Cl-].[Na+]` [salt, NaCl], for which the “anti-pathogen activity in Arabidopsis after salt treatment” value in the data set with Pst DC3000 [1] is reported as “enhance the anti-pathogen activity”.

Take AVQSKPPSKRDPPKMQTD [systemin]: in data set [2], the “induction of JA and JA-Ile” value is given as “significantly induced by treatment for 2 hours”.

In the case of CNYDPV, the “defense gene expression (PR-1b and WRKY53) in tomato” value in data set [3] was “decreased”.

“PAGNYIGARPY (listed as Arabidopsis thaliana) [AtCAPE1]”: the “immunity against Pst DC3000 infection in Arabidopsis” value with Pst DC3000 [4] is on record as “increase immunity against Pst DC3000 infection”.

Turning to “PRGNYVNEKPY (listed as Arabidopsis thaliana) [AtCAPE9]”, the “immunity against Pst DC3000 infection in Arabidopsis” value in the data set on Pst DC3000 [4] is given as “increase immunity against Pst DC3000 infection”.

For PVGNWIGQRPY [CAPE1, PVGNWIGQRPY], the “induction of the hypersensitive response (HR)” value in data set [5] (in vivo) is “without induction of the HR”.

As for QRLSTGSRINSAKDDAAGLQIA [flg22], the “induction of SA” value in the data set with SA accumulation is “significantly induced SA”. The WRKY53 expression result in data set [6] is “highly induced”. Besides, in data set [7], the “PR-1b, Adi3 and ERF5 induction (public RNA-seq data)” value is reported as “could not be significantly induced”; the “WRKY53 induction (public RNA-seq data)” value is “could be induced”. Also, the “plant resistance to Pst DC3000 infection in tomato” value in data set [5] (plants sprayed with 100 nM peptide for 2 hours prior to inoculation) was “resulted in plant resistance to Pst DC3000 infection”.

These data come from patent US10306895B2, “Plant defense signaling peptides and applications thereof” (Academia Sinica, priority 2014, dated 2019).
